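Assay format: 96-well plates, 48-hour exposure. Here, GI50 denotes the concentration required for 50% inhibition of growth.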 Active and inactive are the calls of the source. No stated cut-off is given here; in the data, active = GI50 up to about 1.1 µM and inactive = higher.
Legend:
Assay in all cases: DTP human tumour cell line panel, 48 h
786-0 = tested on: 786-0
A498 = tested on: A498
A549 = tested on: A549
ACHN = tested on: ACHN
BT-549 = tested on: BT-549
CAKI-1 = tested on: CAKI-1
CCRF-CEM = tested on: CCRF-CEM
COLO 205 = tested on: COLO 205
DLD-1 = tested on: DLD-1
DMS-114 = tested on: DMS-114
DMS-273 = tested on: DMS-273
DU-145 = tested on: DU-145
EKVX = tested on: EKVX
HCC 2998 = tested on: HCC 2998
HCT-116 = tested on: HCT-116
HCT-15 = tested on: HCT-15
HL-60 = tested on: HL-60
HOP-18 = tested on: HOP-18
HOP-62 = tested on: HOP-62
HOP-92 = tested on: HOP-92
HT-29 = tested on: HT-29
Hs-578T = tested on: Hs-578T
IGROV-1 = tested on: IGROV-1
K562 = tested on: K562
KM-20L2 = tested on: KM-20L2
KM12 = tested on: KM12
LOX IMVI = tested on: LOX IMVI
LXFL 529 = tested on: LXFL 529
M14 = tested on: M14
M19-MEL = tested on: M19-MEL
MCF7 = tested on: MCF7
MDA-MB-231 = tested on: MDA-MB-231
MDA-MB-435 = tested on: MDA-MB-435
MDA-N = tested on: MDA-N
MOLT-4 = tested on: MOLT-4
Malme-3M = tested on: Malme-3M
NCI-H226 = tested on: NCI-H226
NCI-H23 = tested on: NCI-H23
NCI-H460 = tested on: NCI-H460
NCI-H522 = tested on: NCI-H522
OVCAR-3 = tested on: OVCAR-3
OVCAR-4 = tested on: OVCAR-4
OVCAR-5 = tested on: OVCAR-5
OVCAR-8 = tested on: OVCAR-8
PC-3 = tested on: PC-3
RPMI-8226 = tested on: RPMI-8226
RXF 393 = tested on: RXF 393
RXF 631 = tested on: RXF 631
SF-268 = tested on: SF-268
SF-295 = tested on: SF-295
SF-539 = tested on: SF-539
SK-MEL-28 = tested on: SK-MEL-28
SK-MEL-2 = tested on: SK-MEL-2
SK-MEL-5 = tested on: SK-MEL-5
SK-OV-3 = tested on: SK-OV-3
SN12C = tested on: SN12C
SNB-19 = tested on: SNB-19
SNB-75 = tested on: SNB-75
SNB-78 = tested on: SNB-78
SR = tested on: SR
SW-620 = tested on: SW-620
T47D = tested on: T47D
TK-10 = tested on: TK-10
U-251 = tested on: U-251
UACC-257 = tested on: UACC-257
UACC-62 = tested on: UACC-62
UO-31 = tested on: UO-31
XF498 = tested on: XF498

`CC(=O)Oc1cccc2c1C(=O)C(Br)(Br)CCC2` was tested, and the GI50 (786-0) was 5.32 µM (inactive), the GI50 (A498) was 19 µM (inactive) and the GI50 (A549) was 17.7 µM (inactive). The GI50 (ACHN) was 6.38 µM (inactive), the GI50 (BT-549) was 2.14 µM (inactive) and the GI50 (CAKI-1) was 6.62 µM (inactive). The GI50 (CCRF-CEM) was 1.34 µM (inactive), the GI50 (COLO 205) was 6.52 µM (inactive) and the GI50 (DLD-1) was 10.1 µM (inactive). For the same compound, the GI50 (DMS-114) was 2.54 µM (inactive), the GI50 (DMS-273) was 3.75 µM (inactive) and the GI50 (DU-145) was 13.7 µM (inactive). For the same compound, the GI50 (EKVX) was 11 µM (inactive), the GI50 (HCC 2998) was 15.3 µM (inactive) and the GI50 (HCT-116) was 3.26 µM (inactive). The GI50 (HCT-15) was 5.12 µM, the GI50 (HL-60) was 2.38 µM (inactive) and the GI50 (HOP-18) was 18.2 µM (inactive). The GI50 (HOP-62) was 14.4 µM (inactive), the GI50 (HOP-92) was 2.93 µM (inactive) and the GI50 (HT-29) was 5.55 µM (inactive). The GI50 (Hs-578T) was 7.38 µM (inactive), the GI50 (IGROV-1) was 13.5 µM (inactive) and the GI50 (K562) was 3.3 µM (inactive). The GI50 (KM-20L2) was 8.05 µM (inactive), the GI50 (KM12) was 8.49 µM (inactive) and the GI50 (LOX IMVI) was 2.17 µM (inactive). The GI50 (LXFL 529) was 6.55 µM (inactive), the GI50 (M14) was 2.51 µM (inactive) and the GI50 (M19-MEL) was 7.28 µM (inactive). For the same compound, the GI50 (MCF7) was 2.29 µM (inactive), the GI50 (MDA-MB-231) was 2.38 µM (inactive) and the GI50 (MDA-MB-435) was 3.56 µM (inactive). For the same compound, the GI50 (MDA-N) was 2.89 µM (inactive), the GI50 (MOLT-4) was 1.11 µM (active) and the GI50 (Malme-3M) was 4.07 µM (inactive). The GI50 (NCI-H226) was 6.68 µM (inactive), the GI50 (NCI-H23) was 4.29 µM (inactive) and the GI50 (NCI-H460) was 17.3 µM (inactive). For the same compound, the GI50 (NCI-H522) was 1.87 µM (inactive), the GI50 (OVCAR-3) was 6.97 µM (inactive) and the GI50 (OVCAR-4) was 1.83 µM (inactive). For the same compound, the GI50 (OVCAR-5) was 7.6 µM (inactive), the GI50 (OVCAR-8) was 4.38 µM (inactive) and the GI50 (PC-3) was 3.96 µM (inactive). For the same compound, the GI50 (RPMI-8226) was 2.22 µM (inactive), the GI50 (RXF 393) was 6.24 µM (inactive) and the GI50 (RXF 631) was 17.4 µM (inactive). For the same compound, the GI50 (SF-268) was 8.34 µM (inactive), the GI50 (SF-295) was 17.5 µM (inactive) and the GI50 (SF-539) was 9.31 µM (inactive). The GI50 (SK-MEL-28) was 10.5 µM (inactive), the GI50 (SK-MEL-2) was 9.23 µM (inactive) and the GI50 (SK-MEL-5) was 4.41 µM (inactive). For the same compound, the GI50 (SK-OV-3) was 10.1 µM (inactive), the GI50 (SN12C) was 5.86 µM (inactive) and the GI50 (SNB-19) was 11.1 µM (inactive). For the same compound, the GI50 (SNB-75) was 6.1 µM (inactive), the GI50 (SNB-78) was 17.3 µM (inactive) and the GI50 (SR) was 1.77 µM (inactive). The GI50 (SW-620) was 2.81 µM (inactive), the GI50 (T47D) was 2.53 µM (inactive) and the GI50 (TK-10) was 16.9 µM (inactive). For the same compound, the GI50 (U-251) was 9.62 µM (inactive), the GI50 (UACC-257) was 10.9 µM (inactive) and the GI50 (UACC-62) was 7.76 µM (inactive). For the same compound, the GI50 (UO-31) was 9.46 µM (inactive) and the GI50 (XF498) was 11.2 µM (inactive).
